Measurements taken from patent US8394848B2, “Compounds that modulate intracellular calcium” (Calcimedica, Inc., priority 2008, dated 2013).

tested on: JR251 or RBL cells; assay: Store-operated calcium entry, either JR251 or RBL cells, or both; format: cell-based
Protocol: The day prior to performing the assay, RBL-2H3 cells are plated in 50 μL of complete medium in a 384 well plate. Cells are grown at 37° C./6% CO2 overnight and grow to 50-60% confluence by the next day. On the assay day, 1.5 μM Fluo-4-AM dye (Invitrogen) in complete medium is added and incubated for 1 hour at RT. Cells are washed twice in Ca^2+-free HBSS buffer and 35 μL Ca^2+-free HBSS buffer is added to each well. 10 μL of a test compound prepared in a Ca^2+-free HBSS solution at 4.5× of the desired concentration is added to a well and incubated for 5 minutes at RT. 10 μL of thapsigargin prepared in a Ca^2+-free HBSS solution at 5.5× of the desired concentration (5.5 uM) is added to each well and incubated for an additional 25 minutes. The initial baseline fluorescence signal is measured with a FLIPR^384 (Molecular Devices) plate reader. 5 μL of 12× calcium in HBSS (12 mM) is added and changes in cellular fluorescence are measured with the FLIPR^384 plate reader. In each well, the change in the fluorescent signal as a function of time due to calcium entry into the cell is determined by calculating the difference between the fluorescent signal measured 7 seconds after calcium addition and the initial baseline fluorescence signal at time zero (t=0). This parameter is designated Upslope. The IC50 value is calculated as the concentration at which 50% of the Upslope is inhibited.

IC50, < 10 µM:
Cc1cc(C(=O)Nc2scc(-c3ccc(Br)cc3)c2C(=O)O)cc(O)n1 [4-(4-bromophenyl)-2-(2-hydroxy-6-methylisonicotinamido)thiophene-3-carboxylic acid]
Cc1ccc(-c2csc(NC(=O)c3ccc4ccccc4n3)c2C(=O)O)cc1 [2-(quinoline-2-carboxamido)-4-p-tolylthiophene-3-carboxylic acid]
O=C(Nc1scc(-c2ccc(Br)cc2)c1C(=O)O)OCc1ccccc1 [2-(benzyloxycarbonylamino)-4-(4-bromophenyl)thiophene-3-carboxylic acid]
O=C(Nc1scc(-c2cc3cc(Cl)ccc3o2)c1C(=O)O)c1cc2ccccc2o1 [2-(benzofuran-2-carboxamido)-4-(5-chlorobenzofuran-2-yl)thiophene-3-carboxylic acid]
O=C(Nc1scc(-c2ccc(Cl)c(F)c2F)c1C(=O)O)c1cc2ccccc2o1 [2-(benzofuran-2-carboxamido)-4-(4-chloro-2,3-difluorophenyl)thiophene-3-carboxylic acid]
CC(=O)Oc1cccc2cc(-c3csc(NC(=O)c4cc5ccccc5o4)c3C(=O)O)oc12 [4-(7-acetoxybenzofuran-2-yl)-2-(benzofuran-2-carboxamido)thiophene-3-carboxylic acid]
O=C(Nc1scc(-c2ccc(Cl)cc2F)c1C(=O)O)c1nc2ccccc2o1 [2-(benzo[d]oxazole-2-carboxamido)-4-(4-chloro-2-fluorophenyl)thiophene-3-carboxylic acid]
O=C(Nc1scc(-c2cc3ccccc3o2)c1C(=O)O)c1cc2ccccc2o1 [2-(benzofuran-2-carboxamido)-4-(benzofuran-2-yl)thiophene-3-carboxylic acid]
N#Cc1cccc2nc(C(=O)Nc3scc(-c4ccc(Cl)cc4)c3C(=O)O)oc12 [4-(4-chlorophenyl)-2-(7-cyanobenzo[d]oxazole-2-carboxamido)thiophene-3-carboxylic acid]
O=C(Nc1scc(-c2ccc(Br)cc2)c1C(=O)O)c1ccc(C(F)(F)F)nc1 [4-(4-bromophenyl)-2-(6-(trifluoromethyl)nicotinamido)thiophene-3-carboxylic acid]
O=C(Nc1cccc(F)c1)Nc1scc(-c2ccc(Br)cc2)c1C(=O)O [4-(4-bromophenyl)-2-(3-(3-fluorophenyl)ureido)thiophene-3-carboxylic acid]
O=C(O)c1c(-c2ccc(Br)cc2)csc1NC(=O)C1CCc2ccccc2C1 (stereo not drawn) [4-(4-bromophenyl)-2-(1,2,3,4-tetrahydronaphthalene-2-carboxamido)thiophene-3-carboxylic acid]
O=C(CCc1ccccc1)Nc1scc(-c2ccc(Cl)c(Cl)c2)c1C(=O)O [4-(3,4-dichlorophenyl)-2-(3-phenylpropanamido)thiophene-3-carboxylic acid]
N#Cc1c(Cl)ccc(-c2csc(NC(=O)c3cc4ccccc4o3)c2C(=O)O)c1Cl [2-(benzofuran-2-carboxamido)-4-(2,4-dichloro-3-cyanophenyl)thiophene-3-carboxylic acid]
O=C(Nc1scc(OC(=O)c2cc3ccccc3o2)c1C(=O)O)c1cc2ccccc2o1 [4-(benzofuran-2-carbonyloxy)-2-(benzofuran-2-carboxamido)thiophene-3-carboxylic acid]
COc1c(F)ccc(-c2csc(NC(=O)c3cc4ccccc4o3)c2C(=O)O)c1F [2-(benzofuran-2-carboxamido)-4-(2,4-difluoro-3-methoxyphenyl)thiophene-3-carboxylic acid]
O=C(Nc1scc(-c2ccc(Br)cc2)c1C(=O)O)c1ccc2ccccc2n1 [4-(4-bromophenyl)-2-(quinoline-2-carboxamido)thiophene-3-carboxylic acid]
Cc1ccsc1C(=O)Nc1scc(-c2cccc(Cl)c2)c1C(=O)O [4-(3-chlorophenyl)-2-(3-methylthiophene-2-carboxamido)thiophene-3-carboxylic acid]
O=C(O)c1c(-c2ccc(Br)cc2)csc1NC(=O)C1COc2ccccc2C1 (stereo not drawn) [4-(4-bromophenyl)-2-(chroman-3-carboxamido)thiophene-3-carboxylic acid]
O=C(Nc1scc(-c2ccc3c(c2)CCC3)c1C(=O)O)c1cc2ccccc2o1 [2-(benzofuran-2-carboxamido)-4-(2,3-dihydro-1H-inden-5-yl)thiophene-3-carboxylic acid]
O=C(Nc1scc(-c2ccc(Cl)cc2)c1C(=O)O)OCc1ccccc1 [2-(benzyloxycarbonylamino)-4-(4-chlorophenyl)thiophene-3-carboxylic acid]
O=C(CCc1ccccc1Cl)Nc1scc(-c2ccc(Br)cc2)c1C(=O)O [4-(4-bromophenyl)-2-(3-(2-chlorophenyl)propanamido)thiophene-3-carboxylic acid]
O=C(Nc1scc(-c2ccc(F)c(O)c2F)c1C(=O)O)c1nc2ccccc2o1 [2-(benzo[d]oxazole-2-carboxamido)-4-(2,4-difluoro-3-hydroxyphenyl)thiophene-3-carboxylic acid]
COc1cccc(CC(=O)Nc2scc(-c3ccc(Cl)c(Cl)c3)c2C(=O)O)c1 [4-(3,4-dichlorophenyl)-2-(2-(3-methoxyphenyl)acetamido)thiophene-3-carboxylic acid]
COc1cccc2cc(-c3csc(NC(=O)c4nc5ccccc5o4)c3C(=O)O)oc12 [2-(benzo[d]oxazole-2-carboxamido)-4-(7-methoxybenzofuran-2-yl)thiophene-3-carboxylic acid]
O=C(CCc1ccccc1)Nc1scc(-c2ccc(O)cc2)c1C(=O)O [4-(4-hydroxyphenyl)-2-(3-phenylpropanamido)thiophene-3-carboxylic acid]
O=C(Nc1scc(-c2ccc(Cl)cc2)c1C(=O)O)c1nc2c(F)cccc2s1 [4-(4-chlorophenyl)-2-(4-fluorobenzo[d]thiazole-2-carboxamido)thiophene-3-carboxylic acid]
Cc1ccc(-c2csc(NC(=O)c3ccc(-c4ccccc4)s3)c2C(=O)O)cc1 [2-(5-phenylthiophene-2-carboxamido)-4-p-tolylthiophene-3-carboxylic acid]
Cc1ccc(-c2csc(NC(=O)c3cc4c(F)cccc4o3)c2C(=O)O)c(F)c1F [4-(2,3-difluoro-4-methylphenyl)-2-(4-fluorobenzofuran-2-carboxamido)thiophene-3-carboxylic acid]
O=C(CSc1ccccc1)Nc1scc(-c2ccc(Cl)cc2Cl)c1C(=O)O [4-(2,4-dichlorophenyl)-2-(2-(phenylthio)acetamido)thiophene-3-carboxylic acid]
O=C(CCc1ccc(F)c(F)c1)Nc1scc(-c2ccc(Br)cc2)c1C(=O)O [4-(4-bromophenyl)-2-(3-(3,4-difluorophenyl)propanamido)thiophene-3-carboxylic acid]
O=C(O)c1c(-c2ccc(Cl)cc2)csc1NC(=O)C(F)Cc1ccccc1Cl (stereo not drawn) [4-(4-chlorophenyl)-2-(3-(2-chlorophenyl)-2-fluoropropanamido)thiophene-3-carboxylic acid]
Cc1ccc(-c2csc(NC(=O)c3nc4ccccc4o3)c2C(=O)O)cc1CO [2-(benzo[d]oxazole-2-carboxamido)-4-(3-(hydroxymethyl)-4-methylphenyl)thiophene-3-carboxylic acid]
Cc1c(-c2csc(NC(=O)c3cc4ccccc4o3)c2C(=O)O)ccc(Cl)c1Cl [2-(benzofuran-2-carboxamido)-4-(3,4-dichloro-2-methylphenyl)thiophene-3-carboxylic acid]
Cc1ccc(-c2csc(NC(=O)c3ccc4occc4c3)c2C(=O)O)c(F)c1F [2-(benzofuran-5-carboxamido)-4-(2,3-difluoro-4-methylphenyl)thiophene-3-carboxylic acid]
O=C(Nc1scc(-c2ccc(Br)cc2)c1C(=O)O)c1cccnc1 [4-(4-bromophenyl)-2-(nicotinamido)thiophene-3-carboxylic acid]
N#CC(Cc1ccccc1Cl)C(=O)Nc1scc(-c2ccc(Cl)cc2)c1C(=O)O (stereo not drawn) [4-(4-chlorophenyl)-2-(3-(2-chlorophenyl)-2-cyanopropanamido)thiophene-3-carboxylic acid]
Cc1ccsc1C(=O)Nc1scc(-c2ccc(Br)cc2)c1C(=O)O [4-(4-bromophenyl)-2-(3-methylthiophene-2-carboxamido)thiophene-3-carboxylic acid]
O=C(CSc1ccccc1)Nc1scc(-c2ccccc2Br)c1C(=O)O [4-(2-bromophenyl)-2-(2-(phenylthio)acetamido)thiophene-3-carboxylic acid]
